From US20080063628A1, “METHODS TO PROMOTE CELL DIFFERENTIATION” (priority 2006, published 2008) come the findings set out here.

In the test the test system is resting peripheral blood mononuclear cells (PBMCs). The experiment in a line: Trichostatin A treatment of PBMCs, gene expression by RT-PCR (Example 20). The format is cell-based, human. The following applies: 5 μM. From the text: Human peripheral blood mononuclear cells (PBMCs) were isolated from whole blood using Histopaque (Sigma) gradients and standard density centrifugation. PBMCs are a heterogeneous mixture of lymphoid cells including quiescent T-lymphocytes. Cells were washed thoroughly, counted, and resuspended at 1-2×10^6 cells per ml in culture medium containing RPMI-1640 and 10% FCS. Phytohemagglutinin (PHA; Sigma) is a mitogenic lectin that specifically induces T-lymphocyte activation and proliferation. PHA was added to the cell suspension at a final concentration of 10 μg/ml, and PBMCs were cultured for 3 days at 37° C. with 5% CO2. […] At the end of culture, PBMCs were pooled to harvest, washed thoroughly, and resuspended in fresh culture medium with 5 μM trichostatin A diluted in DMSO. A control culture of PHA-treated PBMCs received an equivalent dilution of DMSO alone. Cells were returned to culture for an additional 24 or 48 hours. Alternatively, resting PBMCs were isolated in a similar manner and cultured for 24 or 48 hours total incubation time with either 5 μM trichostatin A or DMSO alone. At the conclusion of culture, cells were harvested and washed with PBS prior to preparation of RNA in RLT lysis buffer with β-mercaptoethanol (Qiagen). RNA was purified using the RNeasy Mini Kit (Qiagen); RNA quantity and quality were determined using a spectrophotometer. CDNA was made using the iScript CDNA synthesis kit (BioRad). Samples of 20 ng CDNA were used in each RT-PCR reaction, performed on the Applied Biosystems 7500. Results were normalized against GAPDH expression levels with data analysis performed using the accompanying software.

Turning to `CC(/C=C/C(=O)NO)=C\[C@@H](C)C(=O)c1ccc(N(C)C)cc1` [trichostatin A], for the setting “24 or 48 hours”, the HNF-3 beta expression entry is listed as “negative”, the Sox17 expression result is “negative”, the glucagon expression result is “negative” and the insulin expression entry was “negative”. Further, for the setting “24 or 48 hours”, the somatostatin expression entry is “negative”. Besides, where the note is “24 hrs”, the GAPDH gene expression entry is “+++ (detectable at less than 35 cycles by RT-PCR with SE less than 0.9)”, the GATA4 gene expression result is recorded as “+ (detectable at greater than 35–40 cycles by RT-PCR)”, the Gata1 gene expression result is “nd (not detectable at >40 cycles by RT-PCR)” and the Pdx-1 gene expression entry is “nd (not detectable at >40 cycles by RT-PCR)”. Where the note is “48 hours”, the GAPDH gene expression result was “+++ (detectable at less than 35 cycles by RT-PCR with SE less than 0.9)”, the GATA4 gene expression entry is on record as “+ (detectable at greater than 35–40 cycles by RT-PCR)”, the Gata1 gene expression entry is reported as “nd (not detectable at >40 cycles by RT-PCR)” and the Pdx-1 gene expression result is recorded as “nd (not detectable at >40 cycles by RT-PCR)”.
